Patent USRE47689E1, “Compounds for treating spinal muscular atrophy” (PTC Therapeutics, Inc., priority 2011, dated 2019)
Like-named read-outs stand apart in the source and are kept apart here.

How the values were obtained:
[1] = tested on: SMN2 minigene (full length SMN2 minigene mRNA containing SMN2 exon 7); experiment: SMN2 minigene mRNA splicing RT-qPCR assay in cultured cells; assay type: cell-based, human; settings: Homo sapiens, HEK293-H, read-out: EC1.5x for production of full length SMN2 mRNA
Method in brief: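 Full-length SMN2 minigene mRNA (exon 7 included), minigene-specific and not endogenous SMN, quantified by RT-qPCR multiplexed with GAPDH in stably transfected HEK293H cells after 24 h compound exposure at 37° C. Abundance from efficiency-corrected Ct, normalized to GAPDH and vehicle; EC1.5x reported as star bins.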

Smn protein = Smn protein assay in cultured cells (SMN HTRF); assay type: cell-based, human; settings: 48 hours; for maximum fold (Fold) increase of Smn protein: SMA patient fibroblast cells, 7-point concentration data, fold increase relative to vehicle control (SMN HTRF); for EC1.5x (concentration giving 1.5-fold Smn protein increase): SMA Type 1 patient fibroblast cells (GM03813), 7-point concentration curve, SMN HTRF, concentration producing 1.5 times Smn protein vs DMSO vehicle control, read-out: EC1.5x for Smn protein expression
Method in brief: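 Smn in SMA fibroblast lysates, measured by anti-SMN HTRF after 48 h compound exposure; EC1.5x from fold change over vehicle.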

[2] = HEK293H cells stably transfected with SMN2-A minigene, 24 hours, 7-point concentration curve, 1.5-fold relative to vehicle-treated cells

C[C@H]1CN(c2ccc3cc(-c4ccc5c(c4)OCO5)c(=O)oc3c2)CCN1 [Compound 489, 3-(1,3-benzodioxol-5-yl)-7-[(3S)-3-methylpiperazin-1-yl]-2H-chromen-2-one]
EC (1.5-fold) [1, 2]: 3 to 30 µM | maximum fold (Fold) increase of Smn protein (Smn protein): * (maximum fold increase of ≤1.2) | melting point: 134 to 136 °C

Cc1cn2cc(-c3cc4ccc(CCCN(C)C)cc4oc3=O)ccc2n1 [Cpd 908, 7-[3-(dimethylamino)propyl]-3-(2-methylimidazo[1,2-a]pyridin-6-yl)-2H-chromen-2-one]
EC (1.5-fold) [1, 2]: 0.1 to 0.3 µM | EC1.5x (concentration giving 1.5-fold Smn protein increase) (Smn protein): 300 to 1000 nM | maximum fold (Fold) increase of Smn protein (Smn protein): ***** (fold increase >1.65) | melting point: 176 to 178 °C

Cc1cn2cc(-c3cc4ccc(CCCCN(C)C)cc4oc3=O)nc2c(C)n1 [Cpd 902, 7-[4-(dimethylamino)butyl]-3-(6,8-dimethylimidazo[1,2-a]pyrazin-2-yl)-2H-chromen-2-one]
EC (1.5-fold) [1, 2]: < 0.1 µM | EC1.5x (concentration giving 1.5-fold Smn protein increase) (Smn protein): < 300 nM | maximum fold (Fold) increase of Smn protein (Smn protein): ***** (fold increase >1.65) | melting point: 190 to 193 °C

Cc1c[nH]nc1-c1cc2ccc(N3CCNCC3)cc2oc1=O [Cpd 80, 3-(4-methyl-1H-pyrazol-3-yl)-7-(piperazin-1-yl)-2H-chromen-2-one]
EC (1.5-fold) ([1]; 24 h): 3 to 30 µM | maximum fold (Fold) increase of Smn protein (Smn protein): ** (fold increase between >1.2 and ≤1.35) | melting point: 175 to 200 °C (dec.)

Cc1cn2cc(-c3cc4ccc(C5CCN(C)CC5)cc4oc3=O)ccc2n1 [Compound 826, 3-(2-methylimidazo[1,2-a]pyridin-6-yl)-7-(1-methylpiperidin-4-yl)-2H-chromen-2-one]
EC (1.5-fold) [1, 2]: < 0.1 µM | EC1.5x (concentration giving 1.5-fold Smn protein increase) (Smn protein): < 300 nM | maximum fold (Fold) increase of Smn protein (Smn protein): ***** (fold increase >1.65) | melting point: 204 to 206 °C

Cc1cn2cc(-c3cc4ccc(N5C[C@@H](O)[C@H](N6CCCC6)C5)cc4oc3=O)cc2c(C)n1 [Compound 751, 3-(1,3-dimethylpyrrolo[1,2-a]pyrazin-7-yl)-7-[(3′R,4′R)-4′-hydroxy-1,3′-bipyrrolidin-1′-yl]-2H-chromen-2-one]
EC (1.5-fold) [1, 2]: < 0.1 µM | maximum fold (Fold) increase of Smn protein (Smn protein): ** (fold increase between >1.2 and ≤1.35) | melting point: 264 to 268 °C

O=c1oc2cc(CN3CCCCC3)ccc2cc1-c1nc2ccccc2s1 [Compound 59, 3-(1,3-benzothiazol-2-yl)-7-(piperidin-1-ylmethyl)-2H-chromen-2-one]
EC (1.5-fold) [1, 2]: 1 to 3 µM | maximum fold (Fold) increase of Smn protein (Smn protein): ** (fold increase between >1.2 and ≤1.35) | melting point: 201 to 205 °C

Cc1ccn2cc(-c3cc4ccc(N5CCN6CCC5CC6)cc4oc3=O)nc2c1 [Compound 521, 7-(1,4-diazabicyclo[3.2.2]non-4-yl)-3-(7-methylimidazo[1,2-a]pyridin-2-yl)-2H-chromen-2-one]
EC (1.5-fold) ([1]; 24 h): 0.3 to 1 µM | maximum fold (Fold) increase of Smn protein (Smn protein): ** (fold increase between >1.2 and ≤1.35) | melting point: 216 to 223 °C

CN1CCN(c2ccc3cc(-c4cn5ncccc5n4)c(=O)oc3c2)CC1 [Cpd 128, 3-(imidazo[1,2-b]pyridazin-2-yl)-7-(4-methylpiperazin-1-yl)-2H-chromen-2-one]
EC (1.5-fold) [1, 2]: 1 to 3 µM | EC1.5x (concentration giving 1.5-fold Smn protein increase) (Smn protein): 3000 to 10000 nM | maximum fold (Fold) increase of Smn protein (Smn protein): *** (fold increase between >1.35 and ≤1.5) | melting point: 284 to 285 °C

Cc1cn2cc(-c3cc4ccc(OCCNC(C)C)cc4oc3=O)nc2c(C)n1 [Compound 877, 3-(6,8-dimethylimidazo[1,2-a]pyrazin-2-yl)-7-[2-(propan-2-ylamino)ethoxy]-2H-chromen-2-one]
EC (1.5-fold) [1, 2]: < 0.1 µM | EC1.5x (concentration giving 1.5-fold Smn protein increase) (Smn protein): 300 to 1000 nM | maximum fold (Fold) increase of Smn protein (Smn protein): *** (fold increase between >1.35 and ≤1.5) | melting point: 202 to 207 °C

CC(C)NC(C)c1ccc2cc(-c3nc4ccccc4s3)c(=O)oc2c1 (stereo not shown) [Compound 144, 3-(1,3-benzothiazol-2-yl)-7-[1-(propan-2-ylamino)ethyl]-2H-chromen-2-one]
EC (1.5-fold) [1, 2]: 1 to 3 µM | maximum fold (Fold) increase of Smn protein (Smn protein): * (maximum fold increase of ≤1.2) | melting point: 135 to 137 °C

O=c1oc2cc(N3CC4CCC(C3)N4)ccc2cc1-c1cn2cccc(Cl)c2n1 [Compound 526, 3-(8-chloroimidazo[1,2-a]pyridin-2-yl)-7-(3,8-diazabicyclo[3.2.1]oct-3-yl)-2H-chromen-2-one]
EC (1.5-fold) ([1]; 24 h): 0.1 to 0.3 µM | maximum fold (Fold) increase of Smn protein (Smn protein): *** (fold increase between >1.35 and ≤1.5) | melting point: 213 to 216 °C

Cc1ccn2cc(-c3cc4ccc(N[C@@H]5CCNC5)cc4oc3=O)nc2c1 [Compound 496, 3-(7-methylimidazo[1,2-a]pyridin-2-yl)-7-[(3R)-pyrrolidin-3-ylamino]-2H-chromen-2-one]
EC (1.5-fold) [1, 2]: 0.3 to 1 µM | maximum fold (Fold) increase of Smn protein (Smn protein): * (maximum fold increase of ≤1.2) | melting point: 244 to 254 °C

O=c1oc2cc(O[C@@H]3CCNC3)ccc2cc1-c1nc2ccccc2s1 [Compound 55, 3-(1,3-benzothiazol-2-yl)-7-[(3R)-pyrrolidin-3-yloxy]-2H-chromen-2-one]
EC (1.5-fold) [1, 2]: 1 to 3 µM | maximum fold (Fold) increase of Smn protein (Smn protein): * (maximum fold increase of ≤1.2) | melting point: 205 to 211 °C

Cc1cn2cc(-c3cc4ccc(CCN(C)C)cc4oc3=O)nc2c(C)n1 [Compound 864, 7-[2-(dimethylamino)ethyl]-3-(6,8-dimethylimidazo[1,2-a]pyrazin-2-yl)-2H-chromen-2-one]
EC (1.5-fold) [1, 2]: < 0.1 µM | EC1.5x (concentration giving 1.5-fold Smn protein increase) (Smn protein): < 300 nM | maximum fold (Fold) increase of Smn protein (Smn protein): ***** (fold increase >1.65) | melting point: 219 to 223 °C

CN1CCN(c2cc(F)c3cc(-c4nc5ccccc5[nH]4)c(=O)oc3c2)CC1 [Compound 370, 3-(1H-benzimidazol-2-yl)-5-fluoro-7-(4-methylpiperazin-1-yl)-2H-chromen-2-one]
EC (1.5-fold) [1, 2]: 0.3 to 1 µM | maximum fold (Fold) increase of Smn protein (Smn protein): * (maximum fold increase of ≤1.2) | melting point: 281 to 284 °C

Cc1cn2cc(-c3cc4ccc(N5CCN[C@@H](C)C5)cc4oc3=O)cc2cn1 [Compound 647, 7-[(3S)-3-methylpiperazin-1-yl]-3-(3-methylpyrrolo[1,2-a]pyrazin-7-yl)-2H-chromen-2-one]
EC (1.5-fold) [1, 2]: < 0.1 µM | EC1.5x (concentration giving 1.5-fold Smn protein increase) (Smn protein): < 300 nM | maximum fold (Fold) increase of Smn protein (Smn protein): **** (fold increase between >1.5 and ≤1.65) | melting point: 202 to 204 °C

Cc1cn2cc(-c3cc4ccc(N5CCN(C(C)C)[C@@H](C)C5)cc4oc3=O)cc2c(C)n1 [Compound 768, 3-(1,3-dimethylpyrrolo[1,2-a]pyrazin-7-yl)-7-[(3S)-3-methyl-4-(propan-2-yl)piperazin-1-yl]-2H-chromen-2-one]
EC (1.5-fold) [1, 2]: < 0.1 µM | EC1.5x (concentration giving 1.5-fold Smn protein increase) (Smn protein): < 300 nM | maximum fold (Fold) increase of Smn protein (Smn protein): **** (fold increase between >1.5 and ≤1.65) | melting point: 153 to 156 °C

Cc1cn2cc(-c3cc4ccc(N5CCN(CCO)CC5)cc4oc3=O)cc2cn1 [Compound 684, 7-[4-(2-hydroxyethyl)piperazin-1-yl]-3-(3-methylpyrrolo[1,2-a]pyrazin-7-yl)-2H-chromen-2-one]
EC (1.5-fold) [1, 2]: < 0.1 µM | EC1.5x (concentration giving 1.5-fold Smn protein increase) (Smn protein): < 300 nM | maximum fold (Fold) increase of Smn protein (Smn protein): **** (fold increase between >1.5 and ≤1.65) | melting point: 212 to 215 °C

CCN1CCN(c2ccc3cc(-c4cc5c(C)nc(C)cn5c4)c(=O)oc3c2)CC1 [Compound 674, 3-(1,3-dimethylpyrrolo[1,2-a]pyrazin-7-yl)-7-(4-ethylpiperazin-1-yl)-2H-chromen-2-one]
EC (1.5-fold) [1, 2]: < 0.1 µM | EC1.5x (concentration giving 1.5-fold Smn protein increase) (Smn protein): < 300 nM | maximum fold (Fold) increase of Smn protein (Smn protein): ***** (fold increase >1.65) | melting point: 182 to 185 °C

Cc1cn2cc(-c3cc4ccc(N5CCN[C@@H](C)C5)cc4oc3=O)cc2c(C)n1 [Compound 680, 3-(1,3-dimethylpyrrolo[1,2-a]pyrazin-7-yl)-7-[(3S)-3-methylpiperazin-1-yl]-2H-chromen-2-one]
EC (1.5-fold) [1, 2]: < 0.1 µM | EC1.5x (concentration giving 1.5-fold Smn protein increase) (Smn protein): < 300 nM | maximum fold (Fold) increase of Smn protein (Smn protein): **** (fold increase between >1.5 and ≤1.65) | melting point: 162 to 165 °C

Cc1nccn2cc(-c3cc4ccc(N5CCNCC5)cc4oc3=O)cc12 [Compound 555, 3-(1-methylpyrrolo[1,2-a]pyrazin-7-yl)-7-(piperazin-1-yl)-2H-chromen-2-one]
EC (1.5-fold) [1, 2]: 0.1 to 0.3 µM | EC1.5x (concentration giving 1.5-fold Smn protein increase) (Smn protein): < 300 nM | maximum fold (Fold) increase of Smn protein (Smn protein): **** (fold increase between >1.5 and ≤1.65) | melting point: 264 to 266 °C

Cc1ccn2cc(-c3cc4ccc(N5CCCN(C)CC5)cc4oc3=O)nc2c1 [Compound 217, 7-(4-methyl-1,4-diazepan-1-yl)-3-(7-methylimidazo[1,2-a]pyridin-2-yl)-2H-chromen-2-one]
EC (1.5-fold) [1, 2]: 0.3 to 1 µM | maximum fold (Fold) increase of Smn protein (Smn protein): *** (fold increase between >1.35 and ≤1.5) | melting point: 200 to 206 °C

Cc1nccn2cc(-c3cc4ccc(N5CCN[C@H](C)C5)cc4oc3=O)cc12 [Compound 586, 7-[(3R)-3-methylpiperazin-1-yl]-3-(1-methylpyrrolo[1,2-a]pyrazin-7-yl)-2H-chromen-2-one]
EC (1.5-fold) [1, 2]: < 0.1 µM | EC1.5x (concentration giving 1.5-fold Smn protein increase) (Smn protein): < 300 nM | maximum fold (Fold) increase of Smn protein (Smn protein): *** (fold increase between >1.35 and ≤1.5) | melting point: 212 to 215 °C
